The values that follow are results of earlier work, collected in patent US20250017946A1, “COMBINATION OF A BILE ACID AND A PHENYL BUTYRATE COMPOUND FOR THE TREATMENT OF NEURODEGENERATIVE DISEASES” (Amylyx Pharmaceuticals, Inc., priority 2021, published 2025).

The test system of this series is patient populations. Conditions: for less common or rare adverse events / most commonly reported adverse events: individual component, multiple patient populations.

For `O=C(O)CCCc1ccccc1` [PB, sodium phenylbutyrate], the “less common or rare adverse events” value was “nausea, vomiting, stomach upset, stomach pain, gastritis, headache, and skin rash”; the “most commonly reported adverse events” value was “Menstrual irregularities, decreased appetite, sweat-like body odor, and bad taste”.

Consider `C[C@H](CCC(=O)NCCS(=O)(=O)O)[C@H]1CC[C@H]2[C@@H]3[C@@H](O)C[C@@H]4C[C@H](O)CC[C@]4(C)[C@H]3CC[C@]12C` [TURSO, tauroursodeoxycholic acid], for which the “less common or rare adverse events” value was “skin rash and vomiting”; the “most commonly reported adverse events” value was “mild diarrhea, abdominal and pain”. The “most common adverse reactions reported (≥1%)” value (use of TURSO) is “abdominal discomfort, abdominal pain, diarrhea, nausea, pruritus, and rash”.
